Measurements reported in ChEMBL document CHEMBL1133052, “Androsterone 3beta-substituted derivatives as inhibitors of type 3 17beta-hydroxysteroid dehydrogenase” (Bioorg Med Chem Lett, 2000).

Tests used:
Type in all cases: cell-based
[1] = molecular target: T1, 17-beta-hydroxysteroid dehydrogenase type 3 (Homo sapiens) (UniProt P37058); assay: Percent inhibition against type-3 17-beta-HSD expressed in HEK293 cells at 0.3 uM
T1 sequence (whole entry): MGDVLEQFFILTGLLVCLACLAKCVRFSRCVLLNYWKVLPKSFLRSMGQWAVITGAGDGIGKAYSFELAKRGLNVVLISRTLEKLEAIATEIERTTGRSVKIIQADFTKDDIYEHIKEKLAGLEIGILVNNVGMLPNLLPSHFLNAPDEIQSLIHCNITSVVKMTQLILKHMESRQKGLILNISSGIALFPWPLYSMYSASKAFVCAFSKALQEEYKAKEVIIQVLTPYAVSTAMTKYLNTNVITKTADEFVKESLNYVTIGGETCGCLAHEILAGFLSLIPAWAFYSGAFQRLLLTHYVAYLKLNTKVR

[2] = molecular target: T1, 17-beta-hydroxysteroid dehydrogenase type 3 (Homo sapiens); assay: Percent inhibition against type-3 17-beta-HSD expressed in HEK293 cells at 3 uM
[3] = molecular target: T2, 17-beta-hydroxysteroid dehydrogenase type 3 (Homo sapiens, UniProt P37058); assay: Inhibitory concentration against type-3 17-beta-HSD expressed in HEK293 cells
T2 sequence (P37058 whole entry): T1 sequence (whole entry)

Compound | inhibition [1] | inhibition [2] | IC50 [3]
CCCCCC[C@@]1(O)CC[C@@]2(C)C(CC[C@@H]3[C@@H]2CC[C@]2(C)C(=O)CC[C@@H]32)C1 (stereo partly drawn) | 93% | 96% | 100 nM
C[C@]12CC[C@](O)(C3CCCCC3)CC1CC[C@@H]1[C@@H]2CC[C@]2(C)C(=O)CC[C@@H]12 (stereo partly drawn) | 88% | 93% | 97 nM
CCC[C@@]1(O)CC[C@@]2(C)C(CC[C@@H]3[C@@H]2CC[C@]2(C)C(=O)CC[C@@H]32)C1 (stereo partly drawn) | 89% | 94% | 67 nM
C[C@]12CC[C@](O)(c3ccccc3)CC1CC[C@@H]1[C@@H]2CC[C@]2(C)C(=O)CC[C@@H]12 (stereo partly drawn) | 88% | 95% | 81 nM
CCCCCCCC[C@@]1(O)CC[C@@]2(C)C(CC[C@@H]3[C@@H]2CC[C@]2(C)C(=O)CC[C@@H]32)C1 (stereo partly drawn) | 88% | 92% | 147 nM
C[C@]12CC[C@](O)(CCC3CCCCC3)CC1CC[C@@H]1[C@@H]2CC[C@]2(C)C(=O)CC[C@@H]12 (stereo partly drawn) | 92% | 93% | 60 nM
C[C@]12CC[C@](O)(Cc3ccccc3)CC1CC[C@@H]1[C@@H]2CC[C@]2(C)C(=O)CC[C@@H]12 (stereo partly drawn) | 90% | 94% | 57 nM
C[C@]12CC[C@](O)(CC3CCCCC3)CC1CC[C@@H]1[C@@H]2CC[C@]2(C)C(=O)CC[C@@H]12 (stereo partly drawn) | 93% | 95% | 87 nM
C[C@]12CCC(=O)C=C1CC[C@@H]1[C@@H]2CC[C@]2(C)C(=O)CC[C@@H]12 [ANDROSTENEDIONE] | 24% | 78% | 758 nM
CCC(C)[C@@]1(O)CC[C@@]2(C)C(CC[C@@H]3[C@@H]2CC[C@]2(C)C(=O)CC[C@@H]32)C1 (stereo partly drawn) | 85% | 90% | 73 nM
C[C@]12CC[C@](O)(CCc3ccccc3)CC1CC[C@@H]1[C@@H]2CC[C@]2(C)C(=O)CC[C@@H]12 (stereo partly drawn) | 93% | 93% | 99 nM
C[C@@]1(O)CC[C@@]2(C)C(CC[C@@H]3[C@@H]2CC[C@]2(C)C(=O)CC[C@@H]32)C1 (stereo partly drawn) | 72% | 93% | –
C[C@]12CC[C@@H](O)C[C@H]1CC[C@@H]1[C@@H]2CC[C@]2(C)C(=O)CC[C@@H]12 [ETIOCHOLANOLONE] | 50% | 88% | 330 nM
